Patent US8278436B2, “Glycosylated warfarin analogs and uses thereof” (priority 2008, dated 2012)
pIC50: −log10 of the molar value. Read-outs that look alike come from different tables or passages of the source.

Key:
Type in all cases: cell-based
[1] = system: A549 human lung adenocarcinoma cells; assay: cell proliferation assay, A549; conditions: read-out: A549 Lung (+p53)
Text: (§1) In this Example, the warfarin neoglycosides of the invention were screened for anti-tumor activity in cell proliferation assays using the following tumor cells lines: A549—human lung adenocarcinoma; H1299—human lung adenocarcinoma (p53 null); HCT-15—human colorectal adenocarcinoma; HT-29—human colorectal adenocarcinoma; MCF7—human breast adenocarcinoma; NCI-H460—human lung adenocarcinoma; SF-268—human CNS adenocarcinoma; and SKOV-3—human ovarian adenocarcinoma.
(§2) All cell lines were maintained as previously reported (see Langenhan, J. M.; Peters, N. R.; Guzei, I. A.; Hoffmann, F. M.; Thorson, J. S. Proc. Natl. Acad. Sci. USA 2005, 102, 12305-12310, which is incorporated by reference herein). Cells were harvested using 0.25% trypsin and 0.1% EDTA and counted in a Cellometer Auto T4 cell counter (Nexcelom, Inc.) prior to dilution for assay plating. Cells were plated at a denity of 500 cells per well in 50 μL volumes in 384-well clear-bottom tissue culture plates (Corning-Costar, Inc.).
(§3) Compounds were added from the 384-well compound stock plates at a 1:100 dilution using a Biomek FX liquid handler equipped with a 384-channel head (Beckman Coulter, Inc.). The plates were incubated for 7 days at 37° C. in a 5% CO2 atmosphere prior to performing the assays. Calcein AM (acetoxymethyl ester) reagent and EthD-1 (30 μL, 10 μM CAM and 100 μM EthD-1) was added and the cells were incubated for 30 min at 37° C. […] resulting from incubation with Calcein AM and EthD-1 was read using a Safire-2 microplate reader at the appropriate wavelengths. To lyse the cells, 15 μL of CellTiter-Glo reagent (Promega Corporation, Inc.) was added and the cells were incubated for 10 min at room temperature with gentle agitation. The luminescence of each plate was re-read to confirm the observed inhibition.
(§4) IC50s for cell proliferation assays were determined for Calcein AM, the ratio of live/dead cells (Calcein AM/EthD-1), and CellTiter-Glo using XLfit 4.0 as previously described (see Langenhan, J. M.; Peters, N. R.; Guzei, I. A.; Hoffmann, F. M.; Thorson, J. S. Proc. Natl. Acad. Sci. USA 2005, 102, 12305-12310, which is incorporated by reference herein). The IC50 determined using the best fit curve for dosage response from any of the 3 assays is reported as the final IC50. The best fit curve is defined as the curve with the lowest standard error.

[2] = system: H1299 human lung adenocarcinoma (p53 null) cells; assay: cell proliferation assay, H1299
Text: as §1, §2, §3
as §4, with “IC50.” for “IC50. The best fit curve is defined as the curve with the lowest standard error.”

[3] = system: HCT-15 human colorectal adenocarcinoma cells; assay: cell proliferation assay, HCT-15; conditions: Table 3 summary of most active compounds, IC50, read-out: HCT15 Colorectal
Text: as §1, §2, §3, §4

[4] = system: HT-29 human colorectal adenocarcinoma cells; assay: cell proliferation assay, HT-29
Text: as §1, §2, §3, §4

[5] = system: MCF7 human breast adenocarcinoma cells; assay: cell proliferation assay, MCF7
Text: as §1, §2, §3
as §4, with “IC50.” for “IC50. The best fit curve is defined as the curve with the lowest standard error.”

NCI/ADR-RES = assay: cell proliferation assay, NCI/ADR-RES; conditions: Table 3 summary of most active compounds
Description: as §2, §3
as §4, with “IC50.” for “IC50. The best fit curve is defined as the curve with the lowest standard error.”

[6] = system: NCI-H460 human lung adenocarcinoma cells; assay: cell proliferation assay, NCI-H460
Text: as §1, §2, §3, §4

[7] = system: SF-268 human CNS adenocarcinoma cells; assay: cell proliferation assay, SF-268
Text: as §1, §2, §3
as §4, with “IC50.” for “IC50. The best fit curve is defined as the curve with the lowest standard error.”

[8] = system: SKOV-3 human ovarian adenocarcinoma cells; assay: cell proliferation assay, SKOV-3; conditions: read-out: SKOV3 Ovarian
Text: as §1, §2, §3, §4

[9] = Table 3 summary of most active compounds, listed as L-lyxose
[10] = Table 3 summary of most active compounds
[11] = Table 3 summary of most active compounds, IC50, read-out: H729 Colorectal
[12] = Table 3 summary of most active compounds, IC50, read-out: SF268 Giloblast

Compound | pIC50 [1, 10] | pIC50 [2, 10] | pIC50 [3] | pIC50 [4, 11] | pIC50 [5, 10] | pIC50 (NCI/ADR-RES) | pIC50 [6, 10] | pIC50 [7, 12] | pIC50 [8, 10] | also measured
CON(C(C)CC(c1ccccc1)c1c(O)c2ccccc2oc1=O)C1OCC(O)C(O)C1O (mixture of isomers) [WARF Analog 23] |  |  |  |  |  |  |  |  |  | pIC50 [1, 9]: 4.02; pIC50 [2, 9]: 4.52; pIC50 ([3]; listed as L-lyxose): 4.85; pIC50 ([4]; Table 3 summary of most active compounds, IC50, listed as L-lyxose, read-out: H729 Colorectal): 4.33; pIC50 [5, 9]: 4.74; pIC50 (NCI/ADR-RES; listed as L-lyxose): 4.25; pIC50 [6, 9]: < 4.00; pIC50 ([7]; Table 3 summary of most active compounds, IC50, listed as L-lyxose, read-out: SF268 Giloblast): < 4.00; pIC50 [8, 9]: 4.22
CON(C(C)CC(c1ccccc1)c1c(O)c2ccccc2oc1=O)C1CC(C)(O)C(O)C(C)O1 (mixture of isomers) [WARF Analog 37] | < 4.00 | < 4.00 | 4.80 | < 4.00 | < 4.00 | < 4.00 | < 4.00 | < 4.00 | < 4.00 | 
CON(C(C)CC(c1ccccc1)c1c(O)c2ccccc2oc1=O)C1C[C@@H](O)[C@@H](O)CO1 (stereo partly drawn) [WARF Analog 10] | < 4.00 | 4.11 | 4.92 | 4.06 | 4.18 | 4.04 | < 4.00 | < 4.00 | < 4.00 | 
CONC(C)CC(c1ccccc1)c1c(O)c2ccccc2oc1=O (stereo not drawn) [WARF Analog C, 4-hydroxy-3-(3-(methoxyamino)-1-phenylbutyl)-2H-1-benzopyran-2-one] |  |  |  |  |  |  |  |  |  | pIC50 ([1]; Homo sapiens, A549, Table 3 summary of most active compounds): < 4.00; pIC50 ([2]; Homo sapiens, NCI-H1299, Table 3 summary of most active compounds): < 4.00; pIC50 ([3]; Homo sapiens, HCT-15): < 4.00; pIC50 ([4]; Homo sapiens, HT-29, read-out: H729 Colorectal): < 4.00; pIC50 ([5]; Homo sapiens, MCF7, Table 3 summary of most active compounds): < 4.00; pIC50 (NCI/ADR-RES; Homo sapiens): < 4.00; pIC50 ([6]; Homo sapiens, NCI-H460, Table 3 summary of most active compounds): < 4.00; pIC50 ([7]; Homo sapiens, SF-268, read-out: SF268 Giloblast): < 4.00; pIC50 ([8]; Homo sapiens, SK-OV-3, Table 3 summary of most active compounds): < 4.00
